Assay results: patent US20240251785A1, “SMALL MOLECULE ANTAGONISTS AND AGONISTS OF ARTHROPOD KININ RECEPTORS FOR PEST CONTROL” (The Texas A&M University System, priority 2021, published 2024)

How the values were obtained:
[1] = target: recombinant tick kinin receptor (BMLK3) (Rhipicephalus microplus, UniProt Q9NHA4); test: Dose-response dual-addition calcium fluorescence assay on BMLK3 cells; type: cell-based; conditions: for validation mark in dose-response assay: Table 3; for EC50: first addition, 20 concentrations 28 nM-25 μM, read-out: BMLK3 EC50; for IC50: second addition Rhimi-K-1 1 μmol L^−1, read-out: BMLK3 IC50
recombinant tick kinin receptor (BMLK3), sequence (Q9NHA4 entry or part of it): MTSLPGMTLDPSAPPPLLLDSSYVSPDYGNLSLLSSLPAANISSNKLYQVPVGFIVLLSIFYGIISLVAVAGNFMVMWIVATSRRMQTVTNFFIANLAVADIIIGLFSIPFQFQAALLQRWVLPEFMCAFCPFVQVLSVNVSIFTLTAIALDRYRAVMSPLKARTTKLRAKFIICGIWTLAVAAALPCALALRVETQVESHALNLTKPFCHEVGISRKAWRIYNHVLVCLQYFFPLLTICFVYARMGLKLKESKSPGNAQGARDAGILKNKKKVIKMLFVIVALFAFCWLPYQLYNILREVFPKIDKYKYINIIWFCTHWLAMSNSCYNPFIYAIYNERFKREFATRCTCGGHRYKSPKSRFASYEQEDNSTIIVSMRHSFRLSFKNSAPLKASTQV

[2] = test system: vector-only (V/O) CHO-K1 cells; test: Dose-response dual-addition calcium fluorescence assay on vector-only cells; type: cell-based; conditions: V/O cells; for EC50: first addition; for IC50: second addition Rhimi-K-1 1 μmol L^−1, read-out: V/O antagonist IC50
[3] = test system: R. microplus kinin receptor; test: High-throughput dual-addition calcium fluorescence screen on BMLK3 cells; type: cell-based, Rhipicephalus microplus; conditions: for agonist NPA (%): compound 2 μmol L^−1, first addition, relative to FFFSWGa 500 nmol L^−1; for antagonist Io (%): compound 2 μmol L^−1, 5 min, then FFFSWGa 500 nmol L^−1

Row | EC50 [1] [µM] | IC50 [1] [µM] | Compound | validation mark in dose-response assay [1] | EC50 [2] [µM] | IC50 [2] [µM] | agonist NPA (%) [3] [%] | antagonist Io (%) [3] [%]
1 | 0.898 | 10.3 | CCNc1nc(NCc2ccco2)c2ccccc2n1 [SACC-0055093] | *** (molecules which are either off-target or of low activity (<25 μM)) | 0.683 | 0.376 | 128 | 
2 | 9.01 | 0.252 | CC1(C)CSC(=NCc2ccccc2)N1C(=O)Cc1noc2ccccc12 [SACC-0024181] | *** (molecules which are either off-target or of low activity (<25 μM)) | 8.1 | 6.27 | 48 | 
3 | 12 | 10.9 | O=C(CCc1nc(-c2cccs2)no1)Nc1ccc(-n2cnc3ccccc32)nc1 [SACC-0114394] | *** (molecules which are either off-target or of low activity (<25 μM)) | 4.19 | 4.32 | 152 | 
4 | 1.74 | < 0.0285 | O=C(NC(=S)NNC(=O)c1cc(-c2ccccc2)nc2ccccc12)c1cccs1 [SACC-0117741] | *** (molecules which are either off-target or of low activity (<25 μM)) | 1.89 | 1.49 | 127 | 
5 | 0.299 | > 25 | O=C(Cn1cnc2ccccc21)NCc1ccc(OCc2ccccc2)cc1 [SACC-0115325] | *** (molecules which are either off-target or of low activity (<25 μM)) | > 25 | > 25 |  | 83

The next lines start with the compound.

Row | Compound | EC50 [1] [µM] | IC50 [1] [µM] | validation mark in dose-response assay [1] | EC50 [2] [µM] | IC50 [2] [µM] | agonist NPA (%) [3] [%] | antagonist Io (%) [3] [%]
6 | CC1=C(Cc2ccccc2)C(C)Nc2ccccc2N1 (stereo not drawn) [SACC-0026915] | 0.662 | 4.6 | *** (molecules which are either off-target or of low activity (<25 μM)) | 1 | > 25 | 111 | 
7 | COc1ccccc1-n1nnnc1S[C@@H](C)C(=O)c1ccc2c(c1)CCN2C(C)=O [SACC-0095062] | > 25 | > 25 | *** (molecules which are either off-target or of low activity (<25 μM)) | > 25 | < 0.0285 | 47 | 
8 | Cc1n[nH]c(C)c1N1C(=O)c2cccc3c(N4CCCCCC4)ccc(c23)C1=O [SACC-0027895] | > 25 | > 25 | *** (molecules which are either off-target or of low activity (<25 μM)) | > 25 | > 25 | 84 | 
9 | Cc1oc(S(=O)(=O)N2CCOCC2)cc1C(=O)Nc1ccc(F)cc1 [SACC-0026188] | < 0.0285 | 0.225 | *** (molecules which are either off-target or of low activity (<25 μM)) | 0.154 | > 25 |  | 67
10 | CC(=O)c1cc(C(=O)N[C@H](C)c2nc(-c3cccnc3)n[nH]2)cs1 [SACC-0007370] | 1.78 | 1.42 | *** (molecules which are either off-target or of low activity (<25 μM)) | < 0.0285 | > 25 |  | 60
11 | C=CCn1cnnc1SCC1CC1(Cl)Cl (stereo not drawn) [SACC-0063031] | 0.246 | 0.242 | *** (molecules which are either off-target or of low activity (<25 μM)) | 17 | 4.45 |  | 80
12 | Cc1cccc(NC(=O)c2c(F)c(F)c(F)c(F)c2F)n1 [SACC-0037442] | 7.77 | < 0.0285 | *** (molecules which are either off-target or of low activity (<25 μM)) | > 25 | 7.18 |  | 52
